Experiments:
[1] = system: Sweetpotato whitefly-crawler (Bemisia tabaci) (BEMITA); assay: Insecticidal test for sweetpotato whitefly-crawler in foliar spray assay on cotton plants; type: in vivo; details: 200 ppm foliar spray, graded after 8-9 days, Abbott corrected % control, read-out: BEMITA % Ctrl @ 200 ppm
Description: Cotton plants grown in 3-inch pots, with 1 small (3-5 cm) true leaf, were used as test substrate. The plants were placed in a room with whitefly adults. Adults were allowed to deposit eggs for 2-3 days. After a 2-3 day egg-laying period, plants were taken from the adult whitefly room. Adults were blown off leaves using a hand-held Devilbiss sprayer (23 psi). Plants with egg infestation (100-300 eggs per plant) were placed in a holding room for 5-6 days at 82° F. and 50% RH for egg hatch and crawler stage to develop. Four cotton plants were used for each treatment. Compounds (2 mg) were dissolved in 1 mL of acetone solvent, forming stock solutions of 2000 ppm. The stock solutions were diluted 10× with 0.025% Tween 20 in H2O to obtain a test solution at 200 ppm. A hand-held Devilbiss sprayer was used for spraying a solution to both sides of cotton leaf until runoff. Reference plants (solvent check) were sprayed with the diluent only. Treated plants were held in a holding room for 8-9 days at approximately 82° F. and 50% RH prior to grading. Evaluation was conducted by counting the number of live nymphs per plant under a microscope. Insecticidal activity was measured by using Abbott's correction formula and presented in “Table 4. Biological Data for GPA (MYZUPE) and sweetpotato whitefly-crawler (BEMITA)” (see column “BEMITA”): Corrected % Control=100*(X−Y)/X • where X=No. of live nymphs on solvent check plants • Y=No. of live nymphs on treated plants Pesticidally Acceptable Acid Addition Salts, Salt Derivatives, Solvates, Ester Derivatives, Polymorphs, Isotopes and Radionuclides

[2] = system: Green Peach Aphid (GPA) (Myrzus persicae) (MYZUPE); assay: Bioassay on green peach aphid (GPA), foliar spray on cabbage seedlings; type: in vivo; details: Myzus persicae, 72 h, 200 ppm foliar spray, graded after three days, Abbott corrected % control, read-out: MYZUPE % Ctrl @ 200 ppm
Description: Certain molecules disclosed in this document were tested against GPA using procedures described in the following example. In the reporting of the results, “Table 3: GPA (MYZUPE) and sweetpotato whitefly-crawler (BEMITA) Rating Table” was used (See Table Section).
Cabbage seedlings grown in 3-inch pots, with 2-3 small (3-5 cm) true leaves, were used as test substrate. The seedlings were infested with 20-50 GPA (wingless adult and nymph stages) one day prior to chemical application. Four pots with individual seedlings were used for each treatment. Test compounds (2 mg) were dissolved in 2 mL of acetone/methanol (1:1) solvent, forming stock solutions of 1000 ppm test compound. The stock solutions were diluted 5× with 0.025% Tween 20 in H2O to obtain the solution at 200 ppm test compound. A hand-held aspirator-type sprayer was used for spraying a solution to both sides of […] leaves until runoff. Reference plants (solvent check) were sprayed with the diluent only containing 20% by volume of acetone/methanol (1:1) solvent. Treated plants were held in a holding room for three days at approximately 25° C. and ambient relative humidity (RH) prior to grading. Evaluation was conducted by counting the number of live aphids per plant under a microscope. Percent Control was measured by using Abbott's correction formula (W. S. Abbott. “A Method of Computing the Effectiveness of an Insecticide” J. Econ. Entomol. 18 (1925), pp. 265-267) as follows. Corrected % Control=100*(X−Y)/X • where • X=No. of live aphids on solvent check plants and • Y=No. of live aphids on treated plants
Biological Data for GPA (MYZUPE) and sweetpotato whitefly-crawler (BEMITA)” (See Table Section).

Row | Compound | melting point [°C] | pest or weed control at 200 ppm [1] [%] | pest or weed control at 200 ppm [2] [%]
1 | CSCC(C)(C)C(=O)N(C)c1cc(-c2cccnc2)nn1C [Compound 3] | 190 to 193 | – | –
2 | Cc1nn(-c2cncc(F)c2)cc1NC(=O)OC(C)(C)C [Compound 111, tert-butyl 1-(5-fluoropyridin-3-yl)-3-methyl-1H-pyrazol-4-ylcarbamate] | 131.5 to 133 | – | –
3 | CCN(C(=O)CC(OC)(C(F)(F)F)C(F)(F)F)c1cn(-c2cccnc2)nc1C [Compound 276, N-ethyl-4,4,4-trifluoro-3-methoxy-N-(3-methyl-1-(pyridin-3-yl)-1H-pyrazol-4-yl)-3-(trifluoromethyl)butanamide] | 83 to 86 | – | –
4 | CC(C)(C)OC(=O)Nc1cn(-c2cncc(F)c2)nc1C1CC1 [Compound 434, tert-butyl (3-cyclopropyl-1-(5-fluoropyridin-3-yl)-1H-pyrazol-4-yl)carbamate] | 156.5 to 158 | – | –
5 | CC(C)C(=O)Nc1cn(-c2cncc(F)c2)nc1CO [Compound 435, N-(1-(5-fluoropyridin-3-yl)-3-(hydroxymethyl)-1H-pyrazol-4-yl)isobutyramide] | 144 to 146 | – | –
6 | CC(C)C(=O)Nc1cn(-c2cncc(F)c2)nc1C=O [Compound 560, N-(1-(5-fluoropyridin-3-yl)-3-formyl-1H-pyrazol-4-yl)isobutyramide] | 140 to 142 | – | –
7 | CC(C)C(=O)Nc1cn(-c2cncc(F)c2)nc1CCl [Compound 561, N-(3-(chloromethyl)-1-(5-fluoropyridin-3-yl)-1H-pyrazol-4-yl)isobutyramide] | 172 to 177 | – | –
8 | C#CCN(C(=O)OC(C)(C)C)c1cn(-c2cccnc2)nc1C [Compound 596] | 73 to 75 | 80 to 100 | 80 to 100
9 | C#CCN(C(=O)CCC(F)(F)F)c1cn(-c2cccnc2)nc1C [Compound 597] | – | 0 to 80 | 80 to 100
10 | C#CCN(C(=O)CCSC)c1cn(-c2cccnc2)nc1C [Compound 598] | – | 0 to 80 | 80 to 100
11 | C#CCN(C(=O)C(C)CSC)c1cn(-c2cccnc2)nc1C (stereo not drawn) [Compound 599] | – | 0 to 80 | 80 to 100
12 | C#CCN(C(=O)C(C)C)c1cn(-c2cccnc2)nc1C [Compound 600] | 89 to 90 | 0 to 80 | 80 to 100
13 | C#CCN(C(=O)OC(C)(C)C)c1cn(-c2cncc(F)c2)nc1C [Compound 601, tert-butyl 1-(5-fluoropyridin-3-yl)-3-methyl-1H-pyrazol-4-yl(prop-2-ynyl)carbamate] | 81 to 82 | 80 to 100 | 80 to 100
14 | C#CCN(C(=O)C(C)CSC)c1cn(-c2cncc(F)c2)nc1C (stereo not drawn) [Compound 602] | – | 80 to 100 | 80 to 100
15 | C#CCN(C(=O)C(C)C)c1cn(-c2cncc(F)c2)nc1C [Compound 603] | 99 to 100 | 80 to 100 | 80 to 100
16 | C#CCN(C(=O)CCC(F)(F)F)c1cn(-c2cncc(F)c2)nc1C [Compound 604] | – | 80 to 100 | 80 to 100
17 | C#CCN(C(=O)CCSC)c1cn(-c2cncc(F)c2)nc1C [Compound 605, N-(1-(5-fluoropyridin-3-yl)-3-methyl-1H-pyrazol-4-yl)-3-(methylthio)-N-(prop-2-ynyl)propanamide] | – | 80 to 100 | 80 to 100
18 | C#CCN(C(=O)OC(C)(C)C)c1cn(-c2cccnc2)nc1Cl [Compound 606, tert-butyl (3-chloro-1-(pyridin-3-yl)-1H-pyrazol-4-yl)(prop-2-yn-1-yl)carbamate] | – | 80 to 100 | 80 to 100

Row | Compound | melting point [°C] | pest or weed control at 200 ppm [1] [%] | pest or weed control at 200 ppm [2] [%]
19 | C#CCN(C(=O)CCSC)c1cn(-c2cccnc2)nc1Cl [Compound 607] | – | 80 to 100 | 80 to 100
20 | C#CCN(C(=O)C(C)CSC)c1cn(-c2cccnc2)nc1Cl (stereo not drawn) [Compound 608] | – | 80 to 100 | 80 to 100
21 | C#CCN(C(=O)CCC(F)(F)F)c1cn(-c2cccnc2)nc1Cl [Compound 609] | – | 80 to 100 | 80 to 100
22 | C#CCN(C(=O)C(C)C)c1cn(-c2cccnc2)nc1Cl [Compound 610] | 98 to 99 | 80 to 100 | 80 to 100
23 | C#CCN(C(=O)C(C)SC)c1cn(-c2cccnc2)nc1Cl (stereo not drawn) [Compound 611, N-(3-chloro-1-(pyridin-3-yl)-1H-pyrazol-4-yl)-2-(methylthio)-N-(prop-2-yn-1-yl)propanamide] | – | 80 to 100 | 80 to 100
24 | C#CCN(C(=O)CSC)c1cn(-c2cccnc2)nc1Cl [Compound 612] | 65 to 68 | 80 to 100 | 80 to 100
25 | C#CCN(C(=O)CC(SC)C(F)(F)F)c1cn(-c2cccnc2)nc1Cl (stereo not drawn) [Compound 613, N-(3-chloro-1-(pyridin-3-yl)-1H-pyrazol-4-yl)-4,4,4-trifluoro-3-(methylthio)-N-(prop-2-yn-1-yl)butanamide] | – | 80 to 100 | 80 to 100
26 | C#CCN(C(=O)CCC(C)(F)F)c1cn(-c2cccnc2)nc1Cl [Compound 614] | – | 80 to 100 | 80 to 100
27 | C#CCN(C(=O)CCC(F)(F)C(F)(F)F)c1cn(-c2cccnc2)nc1Cl [Compound 615] | – | 80 to 100 | 0 to 80
28 | C#CCN(C(=O)CC(SC)C1CC1)c1cn(-c2cccnc2)nc1Cl (stereo not drawn) [Compound 619] | 109 to 112 | 80 to 100 | 80 to 100
29 | C#CCN(C(=O)C[S+](C)[O-])c1cn(-c2cccnc2)nc1Cl (stereo not drawn) [Compound 620] | – | 80 to 100 | 80 to 100
30 | C#CCN(C(=O)CS(C)(=O)=O)c1cn(-c2cccnc2)nc1Cl [Compound 621] | – | 80 to 100 | 80 to 100
31 | C#CCN(C(=O)C(SC)C(=O)CSC)c1cn(-c2cccnc2)nc1Cl (stereo not drawn) [Compound 622] | – | 80 to 100 | 80 to 100
32 | C#CCN(C(=O)CN(C)S(C)(=O)=O)c1cn(-c2cccnc2)nc1Cl [Compound 623, N-(3-chloro-1-(pyridin-3-yl)-1H-pyrazol-4-yl)-2-(N-methylmethylsulfonamido)-N-(prop-2-yn-1-yl)acetamide] | – | 80 to 100 | 80 to 100
33 | C#CCN(C(=O)CCSC(c1ccccc1)(c1ccccc1)c1ccccc1)c1cn(-c2cccnc2)nc1Cl [Compound 624] | 68 to 70 | – | –
34 | C#CCN(C(=O)CCSCCC(F)(F)F)c1cn(-c2cccnc2)nc1Cl [Compound 626] | – | 80 to 100 | 80 to 100
35 | C#CCN(C(=O)CCSCCC(F)(F)F)c1cn(-c2cccnc2)nc1C [Compound 627, N-(3-methyl-1-(pyridin-3-yl)-1H-pyrazol-4-yl)-N-(prop-2-yn-1-yl)-3-((3,3,3-trifluoropropyl)thio)propanamide] | – | 80 to 100 | 80 to 100

— patent publication US10165775B2, “Pesticidal compositions and processes related thereto” (Dow AgroSciences LLC, priority 2011, dated 2019)
